The values that follow come from PubChem BioAssay (NCI).

Several values for one entry are separate records, joined by “and”; a condition that tells them apart may be missing. Equal values may be shown once.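 Each compound was tested at five concentrations against cells in 96-well plates for 48 hours. TGI marks complete inhibition of growth.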 A value given as a limit tells only on which side of the number the result lay.

Holding throughout (test): NCI tumour cell line growth inhibition, 48 h
In assay [1] the test system is DLD-1 colon.
In assay [2] the test system is DMS 114 small cell lung.
The test system of assay [3] is DMS 273 small cell lung.
The subject of assay [4] is M19-MEL melanoma.
Assay [5] relates to P388 leukemia.
The subject of assay [6] is P388/ADR leukemia.
Assay [7] concerns SN12K1 renal.
In assay [8] the test system is SNB-78 CNS.
Assay [9] has as its system LXFL 529 NSCLC.
Assay [10] concerns RXF-631 renal.

As for `CC[C@H]1CN2CCc3cc(OC)c(OC)cc3[C@@H]2C[C@@H]1C[C@H]1NCCc2cc(OC)c(OC)cc21`, the TGI in [1] was 0.591 µM and 0.408 µM; in assay [2], 0.136 µM and 0.0466 µM; in assay [3] it was 0.18 µM and 0.0463 µM; in [4] it was 0.0824 µM and 0.147 µM.
Take `O=S(=O)(O)c1cc2ccc1/C=C\c1ccc(cc1S(=O)(=O)O)N=Nc1ccc(c(S(=O)(=O)O)c1)/C=C\c1ccc(cc1S(=O)(=O)O)N=N2`: the TGI in assay [1], in assay [3], in assay [4], in assay [5], in assay [6] and in assay [7] was over 100 µM each time. The molecule also showed a TGI in assay [8] of over 100 µM.
On to `BrC/C=C/C[P+](c1ccccc1)(c1ccccc1)c1ccccc1`, for which the TGI in assay [2] is 84 µM; in assay [3], 14.2 µM; in [9] it was 45.1 µM; in [4], 33.2 µM; in assay [10], over 100 µM; in assay [8] it was over 100 µM.
As for `CC(=O)O[C@]12CCCCCC1C1(O)C(O)CCC[C@H]12` (some centres not stated), the TGI in [2], in assay [3], in [9], in [4] and in assay [8] was over 100 µM each time.
As for `CCOC(=O)/C=C(\C)c1ccc(C)cc1C`, the TGI was 31.5 µM in [1]; over 100 µM in assay [2]; over 100 µM in assay [3]; 28.6 µM in assay [9]; over 100 µM in assay [10]; over 100 µM in assay [8].
Consider `O=c1ccc2cc3ccc4cccc5ccc(c2o1)c3c45`, for which the TGI in assay [1], in [2], in [9], in assay [4], in assay [10] and in [8] was over 100 µM in each case.
`Cc1cc(=O)c2c([nH]1)NS(=O)(=O)NC2=O`: the TGI in assay [1], in assay [3], in [9], in assay [4], in assay [10] and in assay [8] was over 100 µM throughout.
As for `COCOc1ccc(Cn2c(=O)n(C)c(=O)c3c2ncn3C)cc1[N+](=O)[O-]`, the TGI in assay [1], in assay [2], in assay [3], in [9], in [4] and in assay [8] was over 100 µM each time.
As for `C=CCNC(=S)/N=C/c1c(O)c2ccccc2oc1=O`, the TGI in assay [1], in [2], in assay [3], in [9], in [4] and in assay [8] was over 100 µM in each case.
